Target: T1, TXK (Homo sapiens, UniProt P42681)
T1 sequence (P42681 1-527): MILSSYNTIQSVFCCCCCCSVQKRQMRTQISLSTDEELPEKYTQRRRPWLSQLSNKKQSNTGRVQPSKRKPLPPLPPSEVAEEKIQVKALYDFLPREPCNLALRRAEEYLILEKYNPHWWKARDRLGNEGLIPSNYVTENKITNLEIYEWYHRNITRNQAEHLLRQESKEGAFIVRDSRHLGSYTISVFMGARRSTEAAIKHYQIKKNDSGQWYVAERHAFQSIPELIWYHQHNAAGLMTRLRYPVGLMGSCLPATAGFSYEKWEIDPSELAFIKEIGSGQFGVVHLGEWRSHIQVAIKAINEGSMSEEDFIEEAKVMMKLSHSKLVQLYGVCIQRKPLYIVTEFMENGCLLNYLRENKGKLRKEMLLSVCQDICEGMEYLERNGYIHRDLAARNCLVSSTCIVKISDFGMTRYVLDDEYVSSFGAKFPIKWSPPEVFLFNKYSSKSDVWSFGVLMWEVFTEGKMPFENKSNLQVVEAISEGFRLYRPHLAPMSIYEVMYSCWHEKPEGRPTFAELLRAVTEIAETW
Assay: Kinome scan, TXK
Type: biochemical
Excerpt: (S)-1-(1-acryloylpiperidin-3-yl)-2-fluoro-5,6,7,8,9,10-hexahydrocyclohepta[b]indole-4-carboxamide, hereinafter referred to as “Compound 1”, is an orally available, selective, potent inhibitor of Bruton's tyrosine kinase (BTK), thereby providing potential treatment options in BTK-driven diseases. The potency of Compound 1 for BTK inhibition is in the nM range in both cell-free enzymatic and whole blood functional assays.

C=CC(=O)N1CCC[C@@H](c2c(F)cc(C(N)=O)c3[nH]c4c(c23)CCCCC4)C1 [Compound 1, (S)-1-(1-acryloylpiperidin-3-yl)-2-fluoro-5,6,7,8,9,10-hexahydrocyclohepta[b]indole-4-carboxamide]
inhibition at 1 µM: > 50%

From patent US20250243176A1, “(S)-1-(1-ACRYLOYLPIPERIDIN-3-YL)-2-FLUORO-5,6,7,8,9,10-HEXAHYDROCYCLO HEPTA[B]INDOLE-4-CARBOXAMIDE, AND RELATED CRYSTALLINE FORMS, COMPOSITIONS, AND METHODS THEREOF” (GB005, Inc., priority 2021, published 2025)
